In data set [1] the target is T1, S. aureus Fab I (Staphylococcus aureus, UniProt Q6GI75).
T1 construct: made in house; host or cells: E. coli
T1 sequence (Q6GI75 1-256): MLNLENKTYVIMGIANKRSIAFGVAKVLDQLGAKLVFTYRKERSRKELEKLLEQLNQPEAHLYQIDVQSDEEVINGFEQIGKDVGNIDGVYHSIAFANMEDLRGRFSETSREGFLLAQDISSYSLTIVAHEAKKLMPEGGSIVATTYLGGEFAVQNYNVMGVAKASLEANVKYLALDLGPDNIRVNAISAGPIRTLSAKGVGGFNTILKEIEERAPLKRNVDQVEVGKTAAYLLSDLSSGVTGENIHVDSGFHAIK
The data set is described as follows: Kinetic characterization of native S. aureus Fab I (substrates, mode of inhibition). It counts as biochemical. As for the experimental part:
(§1) Crotonoyl CoA was used as the substrate for Fab I and all activity measurements were based on a decrease in absorbance at 340 nm due to the utilization of NADH (FIG. 1). All assays were performed with 100 mM NaADA, pH 6.5 buffer. Acyl-CoA inhibition data was performed in the presence of 1 mM crotonoyl CoA and 1 mM NADH.
(§2) However, studies performed at pH 6.0-7.0 with the native enzyme illustrated a sequential mechanistic pattern and kinetic parameters resulting from these studies indicated no overt change in either magnitude or kinetic mechanism. Thus the His10 tagged Fab I behaved distinctly from native Fab I enzyme.

Data set [2] concerns the target T2, E. coli Fab I (Escherichia coli, UniProt P0AEK4). The following applies: cited from earlier work.
The target in data set [3] is T1, S. aureus Fab I. The data set is described as follows: Inhibition of non his tagged (native) Fab I by saturated fatty acyl CoA's, NADH consumption at 340 nm. The following applies: read-out: Mean IC50 (uM) (n = 2), 1 mM crotonoyl CoA and 1 mM NADH, 100 mM NaADA, pH 6.5. It counts as biochemical. As for the experimental part:
as §1

In data set [4] the target is T2, E. coli Fab I. Briefly: Kinetic constants of E. coli Fab I for its substrates. It counts as biochemical. The text has this: A diazaborine derivative may be used as a positive control, this should be readily available via a 2 step synthesis with publicly available starting materials using methods known in the art. Test compounds may be added to this assay to determine whether they agonize or antagonize enzymatic activity.

Substrate in data set [5]: C/C=C/C(=O)SCCNC(=O)CCNC(=O)[C@H](O)C(C)(C)COP(=O)(O)OP(=O)(O)OC[C@H]1O[C@@H](n2cnc3c(N)ncnc32)[C@H](O)[C@@H]1OP(=O)(O)O
The data set is described as follows: Kinetic characterization of native S. aureus Fab I (substrates, mode of inhibition). In kind it is biochemical, Staphylococcus aureus. The following applies: other: S. aureus Fab I. How it is done: as §1, §2

Like-named read-outs stand apart in the source and are kept apart here. Some results are limits rather than exact numbers.

T2 sequence (P0AEK4 whole entry): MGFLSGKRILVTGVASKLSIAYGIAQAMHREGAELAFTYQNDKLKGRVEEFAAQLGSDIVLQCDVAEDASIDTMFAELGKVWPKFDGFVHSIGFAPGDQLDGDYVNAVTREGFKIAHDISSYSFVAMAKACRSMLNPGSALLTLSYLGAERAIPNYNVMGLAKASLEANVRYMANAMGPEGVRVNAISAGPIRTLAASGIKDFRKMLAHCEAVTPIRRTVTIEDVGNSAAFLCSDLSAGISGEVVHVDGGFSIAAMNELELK

As to `C/C=C/C(=O)SCCNC(=O)CCNC(=O)[C@H](O)C(C)(C)COP(=O)(O)OP(=O)(O)OC[C@H]1O[C@@H](n2cnc3c(N)ncnc32)[C@H](O)[C@@H]1OP(=O)(O)O` [CCA, crotonoyl CoA], the KCCA is 2.5 mM at S. aureus Fab I [1] (native S. aureus Fab I) and 2.7 mM on E. coli Fab I [2] (E. coli Fab I, Bergler et al 1994). Also, the Km on E. coli Fab I [2] (substrate of FAB I activity assay (Bergler et al 1994)) is 2700 µM.

Consider `CCCC(=O)SCCNC(=O)CCNC(=O)[C@H](O)C(C)(C)COP(=O)(O)OP(=O)(O)OC[C@H]1O[C@@H](n2cnc3c(N)ncnc32)[C@H](O)[C@@H]1OP(=O)(O)O` [n-Butyryl], for which the IC50 on S. aureus Fab I [3] is greater than 1000 µM.

On to `NC(=O)C1=CN([C@@H]2O[C@H](COP(=O)(O)OP(=O)(O)OC[C@H]3O[C@@H](n4cnc5c(N)ncnc54)[C@H](O)[C@@H]3O)[C@@H](O)[C@H]2O)C=CC1` [NADH], for which the “Kmapp for NADH relative to NADPH” value on S. aureus Fab I [1] (S. aureus Fab I) is “approximately 30 fold”. Moreover, the Km at S. aureus Fab I [1] (S. aureus Fab I, read-out: Km for NADH) was roughly 410 µM; on E. coli Fab I [4] (read-out: Km for NADH) it was 13 µM. Also, the KNADH at S. aureus Fab I [1] (native S. aureus Fab I) is on record as 0.7 mM; at E. coli Fab I [4] it was 0.01 mM. The molecule also yielded a KiNADH on S. aureus Fab I [1] (native S. aureus Fab I) of 0.2 mM.

For the molecule `CCCCCCCCCCCCCC(=O)SCCNC(=O)CCNC(=O)[C@H](O)C(C)(C)COP(=O)(O)OP(=O)(O)OC[C@H]1O[C@@H](n2cnc3c(N)ncnc32)[C@H](O)[C@@H]1OP(=O)(O)O` [Myristoyl], at S. aureus Fab I [3], the IC50 worked out at 23.1 µM.

With `CCCCCCCC(=O)SCCNC(=O)CCNC(=O)C(O)C(C)(C)COP(=O)(O)OP(=O)(O)OC[C@H]1O[C@@H](n2cnc3c(N)ncnc32)[C@H](O)[C@@H]1OP(=O)(O)O` (stereo partly drawn) [n-Octanoyl], the IC50 at S. aureus Fab I [3] worked out at 248 µM.

Consider `CCCCCCCCCC(=O)SCCNC(=O)CCNC(=O)C(O)C(C)(C)COP(=O)(O)OP(=O)(O)OC[C@H]1O[C@@H](n2cnc3c(N)ncnc32)[C@H](O)[C@@H]1OP(=O)(O)O` (stereo partly drawn) [n-Decanoyl], for which the IC50 at S. aureus Fab I [3] was found to be 226 µM.

Take “Apo-ACP: apo acyl carrier protein, inhibitor of Fab I”: in the data set with S. aureus Fab I [1] (S. aureus Fab I), the “Mode of inhibition versus NADH” value was “uncompetitive” and the “Mode of inhibition versus crotonoyl CoA” value is “competitive”.

`CC(=O)SCCNC(=O)CCNC(=O)[C@H](O)C(C)(C)COP(=O)(O)OP(=O)(O)OC[C@H]1O[C@@H](n2cnc3c(N)ncnc32)[C@H](O)[C@@H]1OP(=O)(O)O` [Acetyl]: the IC50 on S. aureus Fab I [3] was greater than 1000 µM.

Turning to `CCCCCC(=O)SCCNC(=O)CCNC(=O)C(O)C(C)(C)COP(=O)(O)OP(=O)(O)OC[C@H]1O[C@@H](n2cnc3c(N)ncnc32)[C@H](O)[C@@H]1OP(=O)(O)O` (stereo partly drawn) [n-Hexanoyl], on S. aureus Fab I [3], the IC50 came out at 576 µM.

B1: S. aureus Fab I (Staphylococcus aureus subsp. aureus MRSA252) (protein)
chain: MLNLENKTYVIMGIANKRSIAFGVAKVLDQLGAKLVFTYRKERSRKELEKLLEQLNQPEAHLYQIDVQSDEEVINGFEQIGKDVGNIDGVYHSIAFANMEDLRGRFSETSREGFLLAQDISSYSLTIVAHEAKKLMPEGGSIVATTYLGGEFAVQNYNVMGVAKASLEANVKYLALDLGPDNIRVNAISAGPIRTLSAKGVGGFNTILKEIEERAPLKRNVDQVEVGKTAAYLLSDLSSGVTGENIHVDSGFHAIK
notes: made in house; host or cells: E. coli
Take B1: the Km in data set [5] is 2500 µM.

These data come from patent US20050112713A1, “Methods of using Fab I and compounds modulating Fab I activity” (Affinium Pharmaceuticals, Inc., priority 1996, published 2005).
